Measured values as given in ChEMBL document CHEMBL3217668, “3-Formylchromone based topoisomerase II inhibitors: discovery of potent leads” (Medchemcomm, 2013).
Calls of active or inactive are those of the source. The rule behind the calls is not given here.

How the values were obtained:
PC-3 = assay: Cytotoxicity against human PC3 cells assessed as cell survival after 48 hrs by MTT assay; assay type: functional; conditions: PC-3, 48 h, read-out: LC50 (the source's name)
[1] = molecular target: T1, DNA topoisomerase 2-alpha (Homo sapiens, UniProt P11388); assay: Inhibition of human topoisomerase-2alpha-mediated kDNA decatenation at 100 uM after 30 mins by agarose gel electrophoresis
T1 sequence (P11388 whole entry): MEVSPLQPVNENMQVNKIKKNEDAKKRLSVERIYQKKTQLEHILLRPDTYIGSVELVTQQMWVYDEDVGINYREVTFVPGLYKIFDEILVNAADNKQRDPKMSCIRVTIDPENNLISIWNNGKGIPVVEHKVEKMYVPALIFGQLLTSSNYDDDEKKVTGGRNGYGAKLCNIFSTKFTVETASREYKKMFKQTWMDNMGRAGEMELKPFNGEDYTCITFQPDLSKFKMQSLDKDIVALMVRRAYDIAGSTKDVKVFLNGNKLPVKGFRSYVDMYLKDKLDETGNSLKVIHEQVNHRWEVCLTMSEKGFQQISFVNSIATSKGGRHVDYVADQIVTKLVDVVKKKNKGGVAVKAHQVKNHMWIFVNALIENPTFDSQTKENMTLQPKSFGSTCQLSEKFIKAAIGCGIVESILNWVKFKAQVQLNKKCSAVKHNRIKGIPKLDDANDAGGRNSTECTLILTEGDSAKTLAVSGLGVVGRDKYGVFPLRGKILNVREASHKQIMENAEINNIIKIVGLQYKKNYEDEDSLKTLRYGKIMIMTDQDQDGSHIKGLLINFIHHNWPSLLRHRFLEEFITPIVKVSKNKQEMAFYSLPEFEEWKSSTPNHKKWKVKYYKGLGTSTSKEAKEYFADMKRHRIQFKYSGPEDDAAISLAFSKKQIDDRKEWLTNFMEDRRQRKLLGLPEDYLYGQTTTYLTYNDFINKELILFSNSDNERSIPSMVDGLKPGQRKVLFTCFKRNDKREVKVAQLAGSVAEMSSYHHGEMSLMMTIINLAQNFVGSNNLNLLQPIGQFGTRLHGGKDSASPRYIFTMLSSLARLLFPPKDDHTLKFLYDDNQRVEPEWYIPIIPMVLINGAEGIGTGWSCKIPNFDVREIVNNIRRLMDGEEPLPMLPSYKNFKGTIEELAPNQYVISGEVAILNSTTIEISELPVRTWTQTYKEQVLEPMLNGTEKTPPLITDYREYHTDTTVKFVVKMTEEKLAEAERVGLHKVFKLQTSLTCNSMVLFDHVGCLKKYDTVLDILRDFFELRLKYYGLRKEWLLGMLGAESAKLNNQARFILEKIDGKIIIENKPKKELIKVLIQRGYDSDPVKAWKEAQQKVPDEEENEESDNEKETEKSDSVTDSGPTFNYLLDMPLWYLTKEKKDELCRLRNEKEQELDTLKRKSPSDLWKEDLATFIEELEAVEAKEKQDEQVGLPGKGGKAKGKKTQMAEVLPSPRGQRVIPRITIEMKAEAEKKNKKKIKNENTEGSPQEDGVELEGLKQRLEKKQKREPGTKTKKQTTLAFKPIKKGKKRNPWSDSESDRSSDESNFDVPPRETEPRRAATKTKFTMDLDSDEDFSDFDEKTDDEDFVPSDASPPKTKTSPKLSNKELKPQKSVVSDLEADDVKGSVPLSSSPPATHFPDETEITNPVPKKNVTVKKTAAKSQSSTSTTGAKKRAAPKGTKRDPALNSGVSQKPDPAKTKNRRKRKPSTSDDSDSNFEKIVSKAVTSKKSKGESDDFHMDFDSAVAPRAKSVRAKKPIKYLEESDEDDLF

[2] = molecular target: T1, DNA topoisomerase 2-alpha; assay: Inhibition of human topoisomerase-2alpha-mediated supercoiled pRYG DNA relaxation at 100 uM after 30 mins by agarose gel electrophoresis
Nucleic Acid [3] = assay: Binding affinity to Escherichia coli plasmid DNA assessed as intercalation at 100 uM after 20 mins by agarose gel electrophoresis; assay type: nucleic-acid assay
Nucleic Acid [4] = assay: Binding affinity to Escherichia coli plasmid DNA assessed as intercalation at 1 ug/mL after 20 mins by agarose gel electrophoresis; assay type: nucleic-acid assay
[5] = molecular target: T1, DNA topoisomerase 2-alpha; assay: Inhibition of human topoisomerase-2alpha-mediated kDNA decatenation after 30 mins by agarose gel electrophoresis

Row | SMILES | CC50 (PC-3) [µM] | inhibition [1] | inhibition [2] | Activity (Nucleic Acid [3]) | Activity (Nucleic Acid [4]) | IC50 [5] [µM]
1 | O=Cc1c(Nc2ccccc2)oc2ccc(Cl)cc2c1=O | 8.3 | Active | Active | inactive |  | 
2 | O=Cc1c(Nc2ccccc2)oc2cc(Cl)ccc2c1=O | 2.5 | Active | Active | inactive |  | 
3 | O=Cc1coc2ccc(Cl)cc2c1=O | 5.7 | Active | Active | inactive |  | 
4 | CN(c1ccccc1)c1oc2ccc(Cl)cc2c(=O)c1C=O | 2.1 | Active | Active | inactive |  | 
5 | O=Cc1c(Nc2ccccc2)oc2ccc(F)cc2c1=O | 8.6 | Active | Active | inactive |  | 
6 | CC[n+]1c(-c2ccccc2)c2cc(N)ccc2c2ccc(N)cc21 |  |  |  |  | Active | 
7 | CN(c1ccccc1)c1oc2ccccc2c(=O)c1C=O | 0.5 |  | Active | inactive |  | 67.9
8 | O=Cc1c(Nc2ccccc2)oc2ccccc2c1=O | 8.2 | Active | Active | inactive |  | 
9 | COc1cc([C@@H]2c3cc4c(cc3[C@@H](O[C@@H]3O[C@@H]5CO[C@@H](C)O[C@H]5[C@H](O)[C@H]3O)[C@H]3COC(=O)[C@H]23)OCO4)cc(OC)c1O [ETOPOSIDE] | 7.5 | Active | Active | inactive |  | 
